Broadly, the IC50 is the midpoint of a concentration-inhibition curve.

What all share (assay type): biochemical
One experiment concerns the target T1, JAK1 (Homo sapiens, UniProt P23458).
T1 construct: 5 μl of catalytic domain recombinant Kinase enzyme+Tyr peptide substrate (Invitrogen, Calif.); purchased Invitrogen
Briefly: Z'-LYTE kinase assay, JAK1 tyrosine phosphorylation activity. Conditions: read-out: JAK 1 IC50. The method, boiled down:
(§1)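 Z'-LYTE format using the Tyr6 peptide with recombinant catalytic-domain kinase; 1 h kinase reaction and 1 h development, both at room temperature. IC50s derived from ratiometric FRET signal.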

Another experiment concerns the target T2, JAK2 (Homo sapiens, UniProt O60674).
T2 construct: 5 μl of catalytic domain recombinant Kinase enzyme+Tyr peptide substrate (Invitrogen, Calif.); purchased Invitrogen
Briefly: Z'-LYTE kinase assay, JAK2 tyrosine phosphorylation activity. The method, boiled down:
as §1

Another experiment has as its target T3, JAK3 (Homo sapiens, UniProt P52333).
T3 construct: 5 μl of catalytic domain recombinant Kinase enzyme+Tyr peptide substrate (Invitrogen, Calif.); purchased Invitrogen
Briefly: Z'-LYTE kinase assay, JAK3 tyrosine phosphorylation activity. The method, boiled down: as §1

The next experiment addresses T4, TYK2 (Homo sapiens, UniProt P29597).
T4 construct: 5 μl of catalytic domain recombinant Kinase enzyme+Tyr peptide substrate (Invitrogen, Calif.); purchased Invitrogen
T4 sequence (P29597 897-1176 limits assumed): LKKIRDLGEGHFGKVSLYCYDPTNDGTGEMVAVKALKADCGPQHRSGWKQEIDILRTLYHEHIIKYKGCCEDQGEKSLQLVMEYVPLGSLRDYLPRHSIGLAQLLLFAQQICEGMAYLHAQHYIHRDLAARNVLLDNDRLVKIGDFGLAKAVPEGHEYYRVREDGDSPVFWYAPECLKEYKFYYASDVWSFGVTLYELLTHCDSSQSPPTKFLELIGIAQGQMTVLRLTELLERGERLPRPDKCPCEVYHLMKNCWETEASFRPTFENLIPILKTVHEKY
Briefly: Z'-LYTE kinase assay, TYK2 tyrosine phosphorylation activity. As to the method: JAK and TYK2 tyrosine phosphorylation activity is measured using the Z′-LYTE™ Technology developed by Invitrogen Corporation (Carlsbad, Calif.). For JAK1, JAK2 and JAK3 the Z′-LYTE™ Kinase Assay Kit-Tyr6 Peptide (part number PV4122) was used. For TYK2 the Z′-LYTE™ Kinase Assay Kit-Tyr6 Peptide (part number PV3192) was used. The Z′-LYTE™ biochemical assay employs a fluorescence resonance energy transfer (FRET) coupled-enzyme format and is based on the differential sensitivity of phosphorylated and non-phosphorylated peptides to proteolitic cleavage. The assay uses a synthetic peptide substrate that is labelled with a donor fluorophore (coumarin) and an acceptor fluorophore (fluorescein) that make up a FRET pair. In the primary reaction (the Kinase Reaction), the kinase transfers the γ-phosphate of ATP to a single tyrosine residue on the substrate, while the presence of a kinase inhibitor in the primary reaction suppresses phosphorylation. In the secondary reaction (the Development Reaction), a site-specific protease (the Development Reagent) is added. The development buffer quenches the Kinase Reaction, while the protease recognizes and cleaves non-phosphorylated Z′-LYTE™ peptide substrate. Cleavage disrupts FRET between the donor and acceptor fluorophores on the non-phosphoryleted substrate, while uncleaved, phosphorylated substrate maintains FRET.
To test the ability of candidate molecules to inhibit JAK tyrosine phosphorylation activity, molecules are reconstituted in 100% DMSO and serially diluted 1:10 in polypropylene v-bottom microtiter plates. The candidate molecules are then diluted 1:25 into kinase buffer and 2.5 μl transferred into duplicate wells of a 384 well low volume black microtiter assay plate (Corning, USA). The final DMSO concentration in the assay is 1%. The kinase reaction contains 2.5 μl of a candidate molecule, 5 μl of catalytic domain recombinant Kinase enzyme+Tyr peptide substrate (Invitrogen, Calif.) and 2.5 μl ATP (Invitrogen, Calif.). The kinase reaction is allowed to procede for 1 hour at room temperature. The protease reaction is initiated by the addition of 5 μl Development Reagent (Invitrogen, Calif.). After 1 hour incubation at room temperature the fluorescence is measured using a FlexStation plate reader (Molecular Devices, Sunnyvale, Calif.). The reader settings used are as follows: Fluorescence mode, endpoint, top read, excitation 400 nm, emission 445 nm and 520 nm, Auto Cutoff 435 nm and 515 nm, PMT sensitivity high, 6 reads per well. Inhibition of JAK activity is calculated as the percent phosphorylation of substrate in the presence of inhibitor compared to the percent phosphorylation of substrate in the absence of inhibitor. IC50's were derived using Xlfit 4.3 (IDBS, UK), 4 parameter logistic model 205: Y=(A+((B−A)/(1+((C/x)^D)))).

T3 sequence (P52333 822-1111 limits assumed): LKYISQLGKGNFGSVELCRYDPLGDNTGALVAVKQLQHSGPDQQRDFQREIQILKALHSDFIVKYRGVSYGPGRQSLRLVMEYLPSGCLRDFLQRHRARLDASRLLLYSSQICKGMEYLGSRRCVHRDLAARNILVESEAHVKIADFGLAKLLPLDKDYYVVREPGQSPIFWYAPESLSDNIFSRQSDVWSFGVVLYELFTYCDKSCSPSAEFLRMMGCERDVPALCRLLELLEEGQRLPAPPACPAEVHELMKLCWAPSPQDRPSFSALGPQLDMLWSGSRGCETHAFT
T2 sequence (O60674 849-1124 limits assumed): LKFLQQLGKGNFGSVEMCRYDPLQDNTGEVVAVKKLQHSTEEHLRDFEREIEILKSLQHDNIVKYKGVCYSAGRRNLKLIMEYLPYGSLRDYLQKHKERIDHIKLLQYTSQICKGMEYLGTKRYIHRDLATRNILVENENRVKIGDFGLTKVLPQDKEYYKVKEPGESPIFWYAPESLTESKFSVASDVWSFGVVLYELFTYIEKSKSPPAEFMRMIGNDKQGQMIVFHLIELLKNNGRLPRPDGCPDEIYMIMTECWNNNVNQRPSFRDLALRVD
T1 sequence (P23458 875-1153 limits assumed): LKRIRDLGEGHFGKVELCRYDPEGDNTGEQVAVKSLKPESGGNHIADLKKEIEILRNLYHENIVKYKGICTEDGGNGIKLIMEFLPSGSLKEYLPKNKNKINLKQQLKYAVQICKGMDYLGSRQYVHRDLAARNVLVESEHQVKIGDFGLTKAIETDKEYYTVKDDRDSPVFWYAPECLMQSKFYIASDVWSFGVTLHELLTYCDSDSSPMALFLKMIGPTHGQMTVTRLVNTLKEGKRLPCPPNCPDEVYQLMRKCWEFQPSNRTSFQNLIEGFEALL

As to `NC(=O)c1cnc(Nc2cccc(NC(=O)N3CCCC3)c2)nc1NCc1cccc(Cl)c1` [Example 180, 4-(3-chlorobenzylamino)-2-(3-(pyrrolidine-1-carboxamido)phenylamino)pyrimidine-5-carboxamide], the IC50 on JAK1 was in the range of 10 to 100 nM; at JAK2, 10 to 100 nM; against JAK3, 1 to 10 nM; against TYK2, 10 to 100 nM.

For `CC(=O)Nc1cccc(Nc2ncc(C(N)=O)c(NCc3cccc(F)c3)n2)c1` [Example 94, 2-(3-acetamidophenylamino)-4-(3-fluorobenzylamino)pyrimidine-5-carboxamide], the IC50 at JAK1 lay within 10 to 100 nM; at JAK2 it was 10 to 100 nM; against JAK3, 1 to 10 nM; against TYK2, 10 to 100 nM.

`CC(C)CNc1nc(Nc2ccc(Cl)c(NC(=O)N3CCCC3)c2)ncc1C(N)=O` [Example 236, 2-(4-chloro-3-(pyrrolidine-1-carboxamido)phenylamino)-4-(isobutylamino)pyrimidine-5-carboxamide]: the IC50 at JAK1, against JAK2, against JAK3 and at TYK2 was 10 to 100 nM each time.

Regarding `CC(=O)Nc1cccc(Nc2ncc(C(N)=O)c(NC3Cc4ccccc4C3)n2)c1` [Example 92, 2-(3-acetamidophenylamino)-4-(2,3-dihydro-1H-inden-2-ylamino)pyrimidine-5-carboxamide], the IC50 at JAK1, against JAK2, against JAK3 and on TYK2 was 10 to 100 nM throughout.

Take `CC(=O)Nc1cc(Nc2ncc(C(N)=O)c(Nc3cccc4nsnc34)n2)ccc1OCCN(C)C` [Example 230, 2-(3-acetamido-4-(2-(dimethylamino)ethoxy)phenylamino)-4-(benzo[c][1,2,5]thiadiazo-4-ylamino)pyrimidine-5-carboxamide]: the concentration for half-maximal inhibition (IC50) on JAK1 lay in the range of 10 to 100 nM; on JAK2, 1 to 10 nM; against JAK3, 1 to 10 nM; against TYK2 it was 10 to 100 nM.

In the case of `COCC(=O)N(c1cccc(Nc2ncc(C(N)=O)c(N[C@H](C)c3ccccc3)n2)c1)C1CC1` [Example 162, (R)-2-(3-(N-cyclopropyl-2-methoxyacetamido)phenylamino)-4-(1-phenylethylamino)pyrimidine-5-carboxamide], the IC50 was 10 to 100 nM at JAK1, 10 to 100 nM against JAK2, 1 to 10 nM at JAK3 and 10 to 100 nM at TYK2.

Regarding `CC(=O)Nc1cccc(Nc2ncc(C(N)=O)c(NCc3ccccn3)n2)c1` [Example 187, 2-(3-acetamidophenylamino)-4-(pyridin-2-ylmethylamino)pyrimidine-5-carboxamide], the IC50 at JAK1 was 100 to 1000 nM; against JAK2, 10 to 100 nM; on JAK3, 10 to 100 nM; at TYK2, 10 to 100 nM.

Take `CC(=O)Nc1cccc(Nc2ncc(C(N)=O)c(N[C@@H]3CCc4ccccc43)n2)c1` [Example 97, (R)-2-(3-acetamidophenylamino)-4-(2,3-dihydro-1H-inden-1-ylamino)pyrimidine-5-carboxamide]: the IC50 on JAK1 was 10 to 100 nM; against JAK2, 10 to 100 nM; on JAK3, 1 to 10 nM; on TYK2, 1 to 10 nM.

As for `CNC(=O)c1cnc(Nc2cccc(NC(C)=O)c2)nc1NCc1ccccc1` [Example 112, 2-(3-acetamidophenylamino)-4-(benzylamino)-N-methylpyrimidine-5-carboxamide], the IC50 at JAK1, on JAK2, against JAK3 and against TYK2 was more than 1000 nM throughout.

Turning to `CC(=O)Nc1cccc(Nc2cc(NCC(C)C)c(C(N)=O)cn2)c1` [Example 323, 6-(3-acetamidophenylamino)-4-(isobutylamino)nicotinamide], the IC50 at JAK1 was 100 to 1000 nM; against JAK2, 100 to 1000 nM; at JAK3, 10 to 100 nM; against TYK2 it was 10 to 100 nM.

Regarding `NC(=O)c1cnc(Nc2cc(NC(=O)N3CCCC3)ccc2F)nc1NCc1ccccc1` [Example 204, 4-(benzylamino)-2-(2-fluoro-5-(pyrrolidine-1-carboxamido)phenylamino)pyrimidine-5-carboxamide], the IC50 at JAK1, against JAK2, on JAK3 and on TYK2 was 100 to 1000 nM each time.

For `NC(=O)c1cnc(Nc2cccc(NC(=O)N3CCCC3)c2)nc1NCC1CC1` [Example 123, 4-(cyclopropylmethylamino)-2-(3-(pyrrolidine-1-carboxamido)phenylamino)pyrimidine-5-carboxamide], the IC50 on JAK1 lay in the range of 10 to 100 nM; against JAK2 it was 10 to 100 nM; at JAK3 it was 1 to 10 nM; at TYK2, 1 to 10 nM.

Take `CC(=O)Nc1cccc(Nc2ncc(C(N)=O)c(NCC(C)C)n2)c1` [Example 235, 2-(3-acetamidophenylamino)-4-(isobutylamino)pyrimidine-5-carboxamide]: the IC50 was in the range of 10 to 100 nM at JAK1, 10 to 100 nM at JAK2, 1 to 10 nM at JAK3 and 1 to 10 nM on TYK2.

Turning to `CC(=O)Nc1cccc(Nc2cc(NCc3ccc4c(c3)OCO4)c(C(N)=O)cn2)c1` [Example 334, 6-(3-acetamidophenylamino)-4-(benzo[d][1,3]dioxol-5-ylmethylamino)nicotinamide], the IC50 on JAK1 was more than 1000 nM; against JAK2, more than 1000 nM; against JAK3, 100 to 1000 nM; at TYK2 it was more than 1000 nM.

On to `COCC(=O)N(C)c1cccc(Nc2ncc(C(N)=O)c(NCC3CC3)n2)c1` [Example 125, 4-(cyclopropylmethylamino)-2-(3-(2-methoxy-N-methylacetamido)phenylamino)pyrimidine-5-carboxamide], for which the IC50 at JAK1, on JAK2, against JAK3 and against TYK2 was 10 to 100 nM each time.

As to `COCC(=O)Nc1cccc(Nc2ncc(C(N)=O)c(NCc3ccc(F)cc3)n2)c1` [Example 104, 4-(4-fluorobenzylamino)-2-(3-(2-methoxyacetamido)phenylamino)pyrimidine-5-carboxamide], the IC50 lay in the range of 100 to 1000 nM on JAK1, 10 to 100 nM against JAK2, 10 to 100 nM at JAK3 and 10 to 100 nM against TYK2.

As to `CC(=O)Nc1cccc(Nc2ncc(C(N)=O)c(N[C@H]3CCc4ccccc43)n2)c1` [Example 96, (S)-2-(3-acetamidophenylamino)-4-(2,3-dihydro-1H-inden-1-ylamino)pyrimidine-5-carboxamide], the IC50 at JAK1, on JAK2, against JAK3 and against TYK2 was 10 to 100 nM in each case.

Take `C[C@@H](Nc1nc(Nc2ccc(Cl)c(NC(=O)NC3CCC3)c2)ncc1C(N)=O)c1ccccc1` [Example 111, (R)-2-(4-chloro-3-(3-cyclobutylureido)phenylamino)-4-(1-phenylethylamino)pyrimidine-5-carboxamide]: the IC50 at JAK1 is more than 1000 nM; against JAK2, more than 1000 nM; against JAK3, 100 to 1000 nM; on TYK2 it was 100 to 1000 nM.

With `C[C@@H](Nc1nc(Nc2cccc(NC(=O)N3CCC(O)CC3)c2)ncc1C(N)=O)c1ccccc1` [Example 215], the IC50 on JAK1 lay in the range of 10 to 100 nM; on JAK2, 10 to 100 nM; at JAK3, 1 to 10 nM; on TYK2, 10 to 100 nM.
